Experimental data reported in US9944597B2, “Polysubstituted pyrroles having microtubule-disrupting, cytotoxic and antitumor activities and methods of use thereof” (THE BOARD OF REGENTS OF THE UNIVERSITY OF TEXAS SYSTEM, priority 2013, dated 2018).
Entries after “also recorded” stand apart in the source; their conditions may differ. Where two headings read alike, the source gives them in different places.

How the values were obtained:
[1] = tested on: MDA-MB-435 (human melanoma cancer cells); details: Table 53; literature data from Da et al. 2013; read-out: MDA-MB-435 Antiproliferative IC50; cited from earlier work
[2] = tested on: variety of cancer cell lines; details: average over a variety of cancer cell lines; read-out: antiproliferative activity, average IC50; cited from earlier work
P-glycoprotein = P-glycoprotein (Homo sapiens, UniProt P08183); details: cited from earlier work
Sequence of P-glycoprotein (P08183 whole entry): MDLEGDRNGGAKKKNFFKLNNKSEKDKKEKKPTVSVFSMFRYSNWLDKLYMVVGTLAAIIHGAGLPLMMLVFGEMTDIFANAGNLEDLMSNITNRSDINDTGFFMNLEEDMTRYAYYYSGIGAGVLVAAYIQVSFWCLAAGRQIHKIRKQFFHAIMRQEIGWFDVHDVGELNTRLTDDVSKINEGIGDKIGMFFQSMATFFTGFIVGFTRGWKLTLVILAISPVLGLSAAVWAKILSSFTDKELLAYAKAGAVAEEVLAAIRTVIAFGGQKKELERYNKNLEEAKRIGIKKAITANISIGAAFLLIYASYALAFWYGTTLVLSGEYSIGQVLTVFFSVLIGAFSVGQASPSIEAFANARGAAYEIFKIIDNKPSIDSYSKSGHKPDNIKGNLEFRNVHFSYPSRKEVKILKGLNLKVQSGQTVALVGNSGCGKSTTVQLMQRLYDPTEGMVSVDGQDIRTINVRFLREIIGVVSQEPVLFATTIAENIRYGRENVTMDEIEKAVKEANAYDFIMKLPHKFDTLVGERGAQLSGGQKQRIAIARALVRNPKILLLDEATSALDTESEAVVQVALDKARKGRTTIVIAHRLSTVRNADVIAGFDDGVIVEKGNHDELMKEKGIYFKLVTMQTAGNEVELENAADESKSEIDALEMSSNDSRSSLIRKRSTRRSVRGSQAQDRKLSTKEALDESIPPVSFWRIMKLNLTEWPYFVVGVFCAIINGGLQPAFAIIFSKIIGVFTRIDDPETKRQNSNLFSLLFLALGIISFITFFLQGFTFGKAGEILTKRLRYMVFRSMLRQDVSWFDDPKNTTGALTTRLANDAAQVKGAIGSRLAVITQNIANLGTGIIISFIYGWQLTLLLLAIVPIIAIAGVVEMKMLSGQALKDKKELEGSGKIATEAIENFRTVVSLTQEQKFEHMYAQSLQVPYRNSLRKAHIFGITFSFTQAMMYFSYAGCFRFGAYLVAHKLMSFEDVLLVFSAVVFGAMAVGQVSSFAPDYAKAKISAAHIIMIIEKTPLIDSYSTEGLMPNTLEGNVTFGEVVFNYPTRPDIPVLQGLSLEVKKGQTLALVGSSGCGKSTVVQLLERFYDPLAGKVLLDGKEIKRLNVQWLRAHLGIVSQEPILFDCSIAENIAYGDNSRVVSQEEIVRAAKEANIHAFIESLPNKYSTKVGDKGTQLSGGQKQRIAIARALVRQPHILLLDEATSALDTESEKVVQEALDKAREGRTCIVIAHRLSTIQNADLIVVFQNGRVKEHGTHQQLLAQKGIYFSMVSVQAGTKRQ

A-10 cells [3] = details: Table 53; literature data from Da et al. 2013; read-out: Microtubule Depolymerization EC50; cited from earlier work
PC-3 xenograft = details: i.p. dosing at relatively high doses, after 14 days of treatment; cited from earlier work
[4] = tested on: MDA-MB-435 (human melanoma cancer cells); experiment: Antiproliferative SRB assay, MDA-MB-435; type: cell-based; details: Homo sapiens, MDA-MB-435
How it was run: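 After 24 h attachment, MDA-MB-435 cells were exposed to compounds for 48 h, then fixed with trichloroacetic acid. Cellular protein was quantified by sulforhodamine B staining. IC50 for proliferation inhibition was taken from the linear portion of log concentration–response curves.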

MDA-MB-435 xenograft = MDA-MB-435 xenograft murine model; type: in vivo
Experimental: The antitumor activity of NT-7-45 was evaluated in the MDA-MB-435 xenograft murine model of cancer. MDA-MB-435 cells were implanted subcutaneously into both flanks of nude mice. Mice were treated periodically with six injections of NT-7-45 i.p. at 75 mg/kg, suspended in a mixture of Tween80, DMSO and PBS.
The antitumor activity of NT-7-16 was evaluated in the MDA-MB-435 xenograft murine model of cancer. MDA-MB-435 cells were implanted subcutaneously into both flanks of nude mice. Mice were treated on days 1, 4, 7, 11, 14, 18, 20 and 22 by injecting NT-7-16 i.p. at 50 mg/kg suspended in a mixture of Tween80, DMSO and PBS. […] As shown in FIG. 5-7, NT-7-16 inhibited tumor growth as compared to vehicle-treated controls in a statistically significant (p<0.05) manner at days 11, 13, 15, 18 and 22.

[5] = target: colchicine binding site on tubulin (Sus scrofa, UniProt P02554); experiment: Colchicine site binding, fluorometric assay
Sequence of colchicine binding site on tubulin (P02554 whole entry): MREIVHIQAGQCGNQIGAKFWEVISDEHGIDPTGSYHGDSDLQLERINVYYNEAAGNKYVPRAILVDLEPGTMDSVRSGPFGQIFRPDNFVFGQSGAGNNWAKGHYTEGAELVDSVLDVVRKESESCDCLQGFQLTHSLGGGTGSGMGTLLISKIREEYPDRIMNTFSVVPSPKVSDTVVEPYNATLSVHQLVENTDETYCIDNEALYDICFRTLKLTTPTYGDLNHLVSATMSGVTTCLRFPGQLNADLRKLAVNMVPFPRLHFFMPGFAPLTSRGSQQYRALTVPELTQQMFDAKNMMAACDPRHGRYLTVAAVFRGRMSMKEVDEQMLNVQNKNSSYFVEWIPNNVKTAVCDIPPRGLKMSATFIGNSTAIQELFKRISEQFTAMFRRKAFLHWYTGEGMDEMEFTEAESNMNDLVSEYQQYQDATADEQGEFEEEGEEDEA
Sequence of colchicine binding site on tubulin (P02550 whole entry partner): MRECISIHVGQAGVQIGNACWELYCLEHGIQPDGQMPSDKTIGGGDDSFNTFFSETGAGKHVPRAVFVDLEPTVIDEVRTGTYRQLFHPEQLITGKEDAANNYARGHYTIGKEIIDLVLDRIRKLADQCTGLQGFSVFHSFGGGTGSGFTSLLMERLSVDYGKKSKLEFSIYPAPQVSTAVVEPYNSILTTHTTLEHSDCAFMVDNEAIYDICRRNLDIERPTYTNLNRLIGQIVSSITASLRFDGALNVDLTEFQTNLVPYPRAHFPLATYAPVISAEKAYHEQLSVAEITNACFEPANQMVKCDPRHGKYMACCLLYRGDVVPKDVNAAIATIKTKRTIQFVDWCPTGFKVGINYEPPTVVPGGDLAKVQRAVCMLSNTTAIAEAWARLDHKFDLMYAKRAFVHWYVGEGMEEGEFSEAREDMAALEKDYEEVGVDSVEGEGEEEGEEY

HeLa cells [6] = experiment: Mitotic spindles by indirect immunofluorescence; type: cell-based, human; details: 18 h, 15 nM or 25 nM
Experimental: The effects of NT-7-16 on mitotic spindles were evaluated in HeLa cells by indirect immunofluorescence. HeLa cells were treated for 18 h with (A) vehicle (DMSO), (B) 15 nM NT-7-16 or (C) 25 nM NT-7-16. […] These effects are consistent with the actions of other microtubule disrupting agents. The presence of lagging chromosomes is indicated by the arrows and is caused by disruption of normal microtubule dynamics.

A-10 cells [7] = experiment: Cellular microtubule loss by indirect immunofluorescence; type: cell-based, rat; details: Rattus norvegicus, A10; Table 53; own compounds; read-out: Microtubule Depolymerization EC50
How it was run: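 Rat embryonic vascular smooth muscle cells were treated across a range of compound concentrations. Microtubules were stained by indirect β-tubulin immunofluorescence, with DAPI for DNA. EC50 is the concentration giving about 50% interphase microtubule loss, scored visually, from curves over at least three experiments.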

[8] = target: T1, purified porcine brain tubulin (Sus scrofa, UniProt P02554); experiment: Inhibition of polymerization of purified tubulin (absorbance at 340 nm); type: biochemical
T1 construct: of Purified Porcine Brain Tubulin; from tissue; host or cells: porcine brain
T1 sequence (P02554 whole entry): as the sequence (P02554 whole entry) above
T1 sequence (P02550 whole entry partner): as the sequence (P02550 whole entry partner) above

HeLa cells [9] = experiment: Cell cycle distribution by flow cytometry; type: cell-based, human; details: HeLa cells treated for 18 hr; FIG. 3: 25 nM NT-7-16, 12.5 nM paclitaxel
Experimental: The effects of NT-7-16 on cell cycle distribution were determined. […] The cells were stained with Kirshan's reagent (Kirshan, Cell Biol. 66, 188-93 (1975)), and cell cycle distribution was measured using a Millipore Muse flow cytometer.
The effects of NT-7-16 on cell cycle distribution were determined. […] The cells were stained with Kirshan's reagent (Kirshan Cell Biol. 66, 188-93. (1975)), and cell cycle distribution was measured using a Millipore Muse flow cytometer.

HeLa WT-β-III cells = experiment: Antiproliferative SRB assay, βIII-tubulin expressing HeLa; type: cell-based, human
How it was run: (§1)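 Cells attached and grew 24 h, then were exposed to compound for 48 h, TCA-fixed and protein stained with sulforhodamine B. IC50 taken from linear portion of log concentration-response curves; relative resistance = IC50 in expressing line / IC50 in parental line.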

[10] = tested on: HeLa (human cervical cancer cells); experiment: Antiproliferative SRB assay, HeLa; type: cell-based; details: Homo sapiens, HeLa
How it was run: as §1

SK-OV-3-MDR-1-6/6 cells = experiment: Antiproliferative SRB assay, Pgp expressing SK-OV-3; type: cell-based, human; details: Homo sapiens, SK-OV-3; Table 49; Pgp expressing line, 48 hr, SRB assay

Question: For `CCOC(=O)c1[nH]c(Br)c(-c2ccc(OC)c(OC)c2)c1Br` [JG-03-14, 4-[(3,4-dimethoxy)-phenyl]-3,5-dibromopyrrole 2-carboxylic acid ethyl ester], which IC50 [1] is on record?
Answer: 36 ± 2 nM

Question: What about the IC50 [2] of the same molecule?
Answer: 62 nM

Question: What about the “substrate for transport by P-glycoprotein” value (P-glycoprotein) of the same molecule?
Answer: poor substrate

Question: And the EC50 (A-10 cells [3])?
Answer: 490 nM

Question: And the “reduction in tumor burden” value (PC-3 xenograft)?
Answer: greater than 50%

Question: With `CCOC(=O)c1[nH]c(Br)c(-c2ccc(OC)c(OC)c2OC)c1Br` [NT-7-16, 3,5-Dibromo-4-(2,3,4-trimethoxyphenyl)-1H-pyrrole-2-carboxylic acid ethyl ester] as the molecule, how does the IC50 ([4]; Table 53, own compounds, read-out: MDA-MB-435 Antiproliferative IC50) read?
Answer: 14 ± 5 nM

Question: And the “tumor growth in MDA-MB-435 xenograft” value (MDA-MB-435 xenograft; 50 mg/kg i.p. on days 1, 4, 7, 11, 14, 18, 20, 22, 25-day model)?
Answer: significant antitumor effects; also recorded: prevented tumor growth; also recorded: statistically significant (p<0.05) inhibition of tumor growth

Question: What about the “toxicity in xenograft study” value (MDA-MB-435 xenograft; 50 mg/kg i.p., eight cumulative doses) of the same molecule?
Answer: no evidence of toxicity; also recorded: no overt toxicity

Question: What about the animal body weight (MDA-MB-435 xenograft; 50 mg/kg i.p., over 25 days) of the same molecule?
Answer: no significant change in animal body weight; also recorded: no significant weight loss

Question: What about the inhibition at 10 µM ([5]; read-out: inhibition of colchicine binding to tubulin) of the same molecule?
Answer: ~80%

Question: What about the “effect on colchicine binding (FIG. 9)” value ([5]; result in words) of the same molecule?
Answer: concentration dependent inhibition of colchicine binding

Question: What about the “effects on mitotic spindles” value (HeLa cells [6]) of the same molecule?
Answer: aberrant mitotic spindles

Question: What about the EC50 (A-10 cells [7]) of the same molecule?
Answer: 345 nM

Question: What about the “inhibition of tubulin assembly” value ([8]; at concentrations of 2-5 μM) of the same molecule?
Answer: almost total inhibition

Question: What about the “effect on tubulin polymerization (turbidity, FIG. 2, FIG. 10)” value ([8]; result in words) of the same molecule?
Answer: concentration-dependent inhibition of tubulin assembly; also recorded: inhibits tubulin polymerization

Question: What about the cell cycle distribution (HeLa cells [9]) of the same molecule?
Answer: initiated mitotic accumulation; also recorded: G2/M arrest

Question: Which IC50 (HeLa WT-β-III cells; Homo sapiens, HeLa, Table 49, βIII tubulin expressing line, 48 hr, SRB assay) does the source give for `CC(=O)O[C@H]1C(=O)[C@@]2(C)[C@H]([C@H](OC(=O)c3ccccc3)[C@]3(O)C[C@H](OC(=O)[C@H](O)[C@@H](NC(=O)c4ccccc4)c4ccccc4)C(C)=C1C3(C)C)[C@]1(OC(C)=O)CO[C@@H]1C[C@@H]2O` [paclitaxel, reference compound] here?
Answer: 21.1 ± 1.8 nM

Question: What about the “Rr (β-III)” value (HeLa WT-β-III cells; relative resistance: IC50 of expressing line divided by IC50 of parental HeLa) of the same molecule?
Answer: 14.1

Question: What about the IC50 ([4]; Table 48, 48 hr exposure, SRB assay, read-out: MDA-MB-435 Anti-Proliferative Activity, IC50) of the same molecule?
Answer: 2 ± 0.1 nM

Question: What about the cell cycle distribution (HeLa cells [9]) of the same molecule?
Answer: initiated mitotic accumulation

Question: What about the IC50 ([10]; Table 48, 48 hr exposure, read-out: HeLa Anti-Proliferative Activity, IC50) of the same molecule?
Answer: 1.5 ± 0.05 nM

Question: What about the IC50 ([10]; Table 49, parental line, 48 hr, read-out: HeLa IC50) of the same molecule?
Answer: 1.5 ± 0.05 nM

Question: And the IC50 (SK-OV-3-MDR-1-6/6 cells)?
Answer: 2330 nM
